Experimental data: ChEMBL document CHEMBL1156221, “A-ring modifications on the triazafluorenone core structure and their mGluR1 antagonist properties” (Bioorg Med Chem Lett, 2010)

Assays:
[1] = molecular target: Metabotropic glutamate receptor 1 (Homo sapiens, UniProt Q13255); experiment: Antagonist activity at human mGluR1; assay type: functional
[2] = molecular target: Metabotropic glutamate receptor 5 (Homo sapiens, UniProt P41594); experiment: Antagonist activity at human mGluR5; assay type: functional
[3] = molecular target: Metabotropic glutamate receptor 1 (Rattus norvegicus, UniProt P23385); experiment: Antagonist activity at rat mGluR1; assay type: functional
[4] = AUC in rat at 10 mg/kg, po by LC/API-MS/MS; assay type: ADME, organism-based; parameters: dose 10 mg/kg, route oral; details: plasma
[5] = Drug level in rat brain at 10 mg/kg, po after 6 hrs; assay type: ADME, organism-based; parameters: dose 10 mg/kg, route oral; details: read-out: Drug uptake
in vivo = details: rat, brain/plasma, po, 10 mg/kg
Description: Ratio of drug level in brain to plasma in rat at 10 mg/kg, po

[6] = molecular target: Metabotropic glutamate receptor 1 (Rattus norvegicus); experiment: Antagonist activity at rat mGluR1

Metabotropic glutamate receptor 1 (Homo sapiens, UniProt Q13255), sequence (Q13255 whole entry): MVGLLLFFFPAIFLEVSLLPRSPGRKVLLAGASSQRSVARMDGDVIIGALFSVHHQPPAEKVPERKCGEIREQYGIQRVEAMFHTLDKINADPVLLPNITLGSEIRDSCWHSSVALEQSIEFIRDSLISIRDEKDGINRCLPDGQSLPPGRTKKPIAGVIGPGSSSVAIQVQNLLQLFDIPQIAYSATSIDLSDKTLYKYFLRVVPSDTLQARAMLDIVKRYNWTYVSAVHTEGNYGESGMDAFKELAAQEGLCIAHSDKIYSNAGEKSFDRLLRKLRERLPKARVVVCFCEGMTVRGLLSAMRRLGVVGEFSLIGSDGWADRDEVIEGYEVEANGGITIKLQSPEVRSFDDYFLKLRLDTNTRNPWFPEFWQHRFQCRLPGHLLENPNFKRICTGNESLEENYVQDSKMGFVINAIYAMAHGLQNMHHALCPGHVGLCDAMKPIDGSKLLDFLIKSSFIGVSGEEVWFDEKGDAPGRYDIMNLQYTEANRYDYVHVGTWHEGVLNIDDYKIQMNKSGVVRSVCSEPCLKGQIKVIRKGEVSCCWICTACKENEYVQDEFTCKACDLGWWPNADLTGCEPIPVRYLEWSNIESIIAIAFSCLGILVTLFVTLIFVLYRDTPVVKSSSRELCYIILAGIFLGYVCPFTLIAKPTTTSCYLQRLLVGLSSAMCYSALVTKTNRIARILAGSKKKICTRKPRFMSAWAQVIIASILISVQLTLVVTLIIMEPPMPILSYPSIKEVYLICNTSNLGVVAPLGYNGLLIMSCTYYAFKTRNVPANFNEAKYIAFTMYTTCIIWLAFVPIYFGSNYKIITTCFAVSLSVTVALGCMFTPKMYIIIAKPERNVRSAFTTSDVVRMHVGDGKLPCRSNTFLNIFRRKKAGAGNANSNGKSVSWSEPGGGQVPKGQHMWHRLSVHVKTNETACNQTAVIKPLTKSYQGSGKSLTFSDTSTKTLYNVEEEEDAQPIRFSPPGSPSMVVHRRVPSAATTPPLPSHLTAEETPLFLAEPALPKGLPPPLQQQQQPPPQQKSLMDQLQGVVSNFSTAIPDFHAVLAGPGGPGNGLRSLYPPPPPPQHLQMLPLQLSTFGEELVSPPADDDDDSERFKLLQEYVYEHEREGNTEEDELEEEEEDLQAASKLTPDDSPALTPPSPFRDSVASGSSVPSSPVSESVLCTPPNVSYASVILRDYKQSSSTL
Metabotropic glutamate receptor 5, sequence (P41594 whole entry): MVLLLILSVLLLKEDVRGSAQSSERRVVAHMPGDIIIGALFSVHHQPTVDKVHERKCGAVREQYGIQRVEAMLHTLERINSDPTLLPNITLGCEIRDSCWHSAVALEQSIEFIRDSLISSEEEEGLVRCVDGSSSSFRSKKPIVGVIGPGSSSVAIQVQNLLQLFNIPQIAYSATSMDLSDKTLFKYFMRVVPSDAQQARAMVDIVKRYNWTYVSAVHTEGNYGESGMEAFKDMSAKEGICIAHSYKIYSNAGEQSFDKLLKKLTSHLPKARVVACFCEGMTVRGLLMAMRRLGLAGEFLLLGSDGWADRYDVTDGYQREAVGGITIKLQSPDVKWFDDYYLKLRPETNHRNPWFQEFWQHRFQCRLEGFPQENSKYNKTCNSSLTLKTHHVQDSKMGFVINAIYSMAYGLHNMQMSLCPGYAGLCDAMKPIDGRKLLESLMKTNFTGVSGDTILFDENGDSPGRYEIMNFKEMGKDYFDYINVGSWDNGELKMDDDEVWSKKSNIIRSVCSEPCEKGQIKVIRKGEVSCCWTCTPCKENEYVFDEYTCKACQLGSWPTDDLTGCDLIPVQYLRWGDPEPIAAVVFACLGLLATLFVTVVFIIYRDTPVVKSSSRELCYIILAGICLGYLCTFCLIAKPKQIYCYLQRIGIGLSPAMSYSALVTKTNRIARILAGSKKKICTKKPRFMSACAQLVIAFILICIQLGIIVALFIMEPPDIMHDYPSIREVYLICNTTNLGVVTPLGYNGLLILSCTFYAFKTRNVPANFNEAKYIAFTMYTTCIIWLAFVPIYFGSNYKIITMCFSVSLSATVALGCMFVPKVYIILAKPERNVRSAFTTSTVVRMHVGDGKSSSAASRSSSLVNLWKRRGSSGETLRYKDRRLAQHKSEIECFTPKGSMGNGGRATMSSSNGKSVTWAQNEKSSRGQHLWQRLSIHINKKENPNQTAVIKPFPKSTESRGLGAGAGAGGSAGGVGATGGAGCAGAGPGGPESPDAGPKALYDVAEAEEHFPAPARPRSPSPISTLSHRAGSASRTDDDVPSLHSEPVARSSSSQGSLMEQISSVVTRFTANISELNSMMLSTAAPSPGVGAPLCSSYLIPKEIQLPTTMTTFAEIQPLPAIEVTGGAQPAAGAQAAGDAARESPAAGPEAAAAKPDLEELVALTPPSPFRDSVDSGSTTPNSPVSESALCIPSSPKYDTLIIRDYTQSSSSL
Metabotropic glutamate receptor 1 (Rattus norvegicus, UniProt P23385), sequence (P23385 whole entry, looked up): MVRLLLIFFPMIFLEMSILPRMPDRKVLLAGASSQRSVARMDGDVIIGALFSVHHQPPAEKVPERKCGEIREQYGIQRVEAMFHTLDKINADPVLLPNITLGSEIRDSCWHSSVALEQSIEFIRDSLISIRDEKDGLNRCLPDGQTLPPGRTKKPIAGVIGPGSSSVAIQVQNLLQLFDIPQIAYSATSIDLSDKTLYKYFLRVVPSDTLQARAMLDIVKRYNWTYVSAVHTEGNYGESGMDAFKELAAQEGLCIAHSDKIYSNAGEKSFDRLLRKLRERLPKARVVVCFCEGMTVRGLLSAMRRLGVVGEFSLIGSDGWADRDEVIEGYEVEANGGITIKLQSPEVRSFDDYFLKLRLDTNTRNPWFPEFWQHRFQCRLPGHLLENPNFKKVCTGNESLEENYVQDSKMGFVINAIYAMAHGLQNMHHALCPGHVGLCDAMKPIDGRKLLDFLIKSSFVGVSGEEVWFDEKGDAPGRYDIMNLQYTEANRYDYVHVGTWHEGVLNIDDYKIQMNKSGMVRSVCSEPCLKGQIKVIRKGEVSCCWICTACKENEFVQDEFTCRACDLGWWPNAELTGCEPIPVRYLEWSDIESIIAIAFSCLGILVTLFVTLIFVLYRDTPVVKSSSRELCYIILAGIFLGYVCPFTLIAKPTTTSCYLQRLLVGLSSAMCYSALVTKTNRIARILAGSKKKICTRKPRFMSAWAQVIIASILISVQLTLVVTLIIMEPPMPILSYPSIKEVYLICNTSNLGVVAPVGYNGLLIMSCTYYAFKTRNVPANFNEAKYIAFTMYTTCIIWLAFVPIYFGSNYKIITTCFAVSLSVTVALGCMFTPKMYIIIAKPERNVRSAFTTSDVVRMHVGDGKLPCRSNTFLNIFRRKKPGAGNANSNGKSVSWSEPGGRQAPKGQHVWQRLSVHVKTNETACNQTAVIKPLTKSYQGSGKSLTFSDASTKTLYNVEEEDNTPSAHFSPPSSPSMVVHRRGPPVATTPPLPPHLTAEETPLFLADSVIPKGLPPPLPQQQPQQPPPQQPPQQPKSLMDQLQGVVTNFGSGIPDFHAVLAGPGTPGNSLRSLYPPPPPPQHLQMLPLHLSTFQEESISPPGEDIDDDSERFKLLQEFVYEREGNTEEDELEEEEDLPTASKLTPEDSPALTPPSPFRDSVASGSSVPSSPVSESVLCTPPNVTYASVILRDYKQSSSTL

## Cc1ccc(-n2cnc3c(sc4nc(C)nc(N)c43)c2=O)cc1
[1]
  IC50: 0.027 µM
[2]
  IC50: > 3 µM
[3]
  Ki: 0.115 µM
[4]
  AUC: 2110 ng·h/mL
[5]
  concentration at 6 h: 29 ng/g
In vivo
  Kp: 0.2
[6]
  Ki: 0.115 µM

## Cc1nc(N)c2c(n1)sc1c(=O)n(-c3ccc(F)cc3)cnc12
[1]
  IC50: 0.068 µM
[2]
  IC50: > 3 µM

## Cc1ccc(-n2cnc3c(sc4nc(S)nc(N)c43)c2=O)cc1
[1]
  IC50: 0.0031 µM
[2]
  IC50: > 3 µM

## COc1ccc(-n2cnc3c(sc4nccc(N(C)C)c43)c2=O)cc1
[2]
  IC50: > 3 µM

## Cc1ccc(-n2cnc3c(sc4nc(C5CC5)nc(N)c43)c2=O)cc1
[1]
  IC50: 0.326 µM
[2]
  IC50: > 3 µM

## Cc1ccc(-n2cnc3c(sc4[nH]c(=O)nc(N)c43)c2=O)cc1
[1]
  IC50: > 1 µM
[2]
  IC50: > 3 µM

## COc1ccc(-n2cnc3c(sc4nc(C)nc(N)c43)c2=O)cc1
[1]
  IC50: 0.188 µM
[2]
  IC50: > 3 µM

## CNc1nc(N)c2c(n1)sc1c(=O)n(-c3ccc(C)cc3)cnc12
[1]
  IC50: > 1 µM
[2]
  IC50: > 3 µM

## Cc1ccc(-n2cnc3c(sc4nc(N)nc(N)c43)c2=O)cc1
[2]
  IC50: > 3 µM
[4]
  AUC: 965 ng·h/mL
[5]
  concentration at 6 h: 100 ng/g
In vivo
  Kp: 0.9

## Cc1ccc(-n2cnc3c(sc4nc(-n5cccc5)nc(N)c43)c2=O)cc1
[1]
  IC50: > 1 µM
[2]
  IC50: > 3 µM

## Cc1ccc(-n2cnc3c(sc4nc(C(F)(F)F)nc(N)c43)c2=O)cc1
[1]
  IC50: > 1 µM
[2]
  IC50: > 3 µM

## Cc1nc(N)c2c(n1)sc1c(=O)n(-c3ccccc3)cnc12
[1]
  IC50: 0.016 µM
[2]
  IC50: > 3 µM

## Cc1nc(N)c2c(n1)sc1c(=O)n(-c3ccc(Cl)cc3)cnc12
[1]
  IC50: 0.011 µM
[2]
  IC50: > 3 µM
